This experiment has as its target T1, catalytic domain of human Bub1 (amino acids 704-1085) (Homo sapiens, UniProt O43683).
T1 construct: catalytic domain of human Bub1 (amino acids 704-1085); His6 (N); made in house; host or cells: Hi5 insect cells
Kind of experiment: Bub1 kinase assay (TR-FRET). The class given is biochemical. The following applies: TR-FRET; ATP 10 μM, peptide substrate 1 μM; 60 min at 22° C.; average or median if tested more than once; read-out: Inhibition of Bub1 kinase IC50. The method, boiled down:
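Eleven concentrations (0.1 nM–20 μM, duplicate) fitted by 4-parameter logistic for IC50. Read-out: EDTA-stopped TR-FRET (665/620 nm) detecting anti-phosphoserine binding to biotin-peptide (1 μM). Reaction used 10 μM ATP, 60 min at 22 °C, after 15 min compound preincubation with His-tagged human Bub1 704-1085.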
A general note: Time-resolved FRET reads energy transfer from a long-lived donor to a nearby acceptor.

Broadly, the IC50 is the point on the concentration scale where inhibition reaches its midpoint.

T1 sequence (O43683 704-1085): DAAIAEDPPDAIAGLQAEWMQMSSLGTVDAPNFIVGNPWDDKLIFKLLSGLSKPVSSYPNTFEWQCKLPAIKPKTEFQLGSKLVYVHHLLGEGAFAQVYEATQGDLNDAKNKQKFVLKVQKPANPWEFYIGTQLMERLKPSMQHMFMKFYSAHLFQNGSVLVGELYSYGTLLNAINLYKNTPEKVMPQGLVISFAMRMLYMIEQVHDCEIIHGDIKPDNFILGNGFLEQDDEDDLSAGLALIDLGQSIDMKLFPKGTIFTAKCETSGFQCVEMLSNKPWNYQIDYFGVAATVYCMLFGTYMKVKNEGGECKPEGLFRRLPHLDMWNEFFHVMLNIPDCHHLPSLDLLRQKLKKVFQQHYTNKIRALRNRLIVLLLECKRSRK

In the case of `CC(=O)Nc1cc(-c2[nH]c3c(c2Nc2ccc(C)cc2)C(=O)CNC3)ccn1` [Example 303, N-(4-{3-[(4-Methylphenyl)amino]4-oxo-4,5,6,7-tetrahydro-1H-pyrrolo[2,3-c]pyridin-2-yl}pyridin-2-yl)acetamide], the IC50 was determined as 1150 nM.

In the case of `CC(=O)Nc1cc(-c2[nH]c3c(c2Nc2ccccc2)C(=O)CN(C(=O)C2CCN(C)CC2)C3)ccn1` [Example 191, N-(4-{3-Anilino-6-[(1-methylpiperidin-4-yl)carbonyl]-4-oxo-4,5,6,7-tetrahydro-1H-pyrrolo[2,3-c]pyridin-2-yl}pyridin-2-yl)acetamide], the IC50 was 143 nM.

Consider `CCNC(=O)N1CC(=O)c2c([nH]c(-c3ccnc(NC(C)=O)c3)c2Nc2ccccc2)C1` [Example 28], for which the IC50 came to 13 nM.

As for `COc1cc(C(=O)Nc2cc(-c3[nH]c4c(c3Nc3ccccc3)C(=O)CN(C(=O)SC(C)(C)C)C4)ccn2)ccc1F` [Example 306, S-tert-butyl 3-anilino-2-{2-[(4-fluoro-3-methoxybenzoyl)amino]pyridin-4-yl}-4-oxo-1,4,5,7-tetrahydro-6H-pyrrolo[2,3-c]pyridine-6-carbothioate], the IC50 turned out to be 171 nM.

On to `CN(C)CC(=O)Nc1cc(-c2[nH]c3c(c2Nc2ccccc2)C(=O)COC3)ccn1` [Example 153, N-[4-(3-Anilino-4-oxo-1,4,5,7-tetrahydropyrano[3,4-b]pyrrol-2-yl)pyridin-2-yl]-N^2,N^2-dimethylglycinamide], for which the IC50 was 510 nM.

For `COc1cc(C(=O)Nc2cc(-c3[nH]c4c(c3Nc3ccccc3)C(=O)CN(C(=O)N3CCCC3)C4)ccn2)ccc1F` [Example 262, 4-Fluoro-3-methoxy-N-4-[4-oxo-3-(phenylamino)-6-(pyrrolidin-1-ylcarbonyl)-4,5,6,7-tetrahydro-1H-pyrrolo[2,3-c]pyridin-2-yl]pyridin-2-ylbenzamide], the IC50 was 8 nM.

In the case of `CC(C)(C)OC(=O)N1CC(=O)c2c([nH]c(-c3ccncc3F)c2Nc2ccccc2)C1` [Example 11, tert-Butyl 2-(3-fluoropyridin-4-yl)-4-oxo-3-(phenylamino)-1,4,5,7-tetrahydro-6H-pyrrolo[2,3-c]pyridine-6-carboxylate], the IC50 stood at 8 nM.

Turning to `CS(=O)(=O)CC(=O)Nc1cc(-c2[nH]c3c(c2Nc2ccccc2)C(=O)COC3)ccn1` [Example 48, 2-(Methylsulfonyl)-N-{4-[4-oxo-3-(phenylamino)-1,4,5,7-tetrahydropyrano[3,4-b]pyrrol-2-yl]pyridin-2-yl}acetamide], the IC50 amounted to 115 nM.

With `O=C1CN(S(=O)(=O)C2CCOCC2)Cc2[nH]c(-c3ccncc3)c(Nc3ccccc3)c21` [Example 70, 3-(phenylamino)-2-(pyridin-4-yl)-6-(tetrahydro-2H-pyran-4-ylsulfonyl)-1,5,6,7-tetrahydro-4H-pyrrolo[2,3-c]pyridin-4-one], the IC50 amounted to 7 nM.

Take `CN(C)S(=O)(=O)N1CC(=O)c2c([nH]c(-c3ccncc3OCC(F)F)c2Nc2ccccc2)C1` [Example 281, 3-Anilino-2-[3-(2,2-difluoroethoxy)pyridin-4-yl]-N,N-dimethyl-4-oxo-1,4,5,7-tetrahydro-6H-pyrrolo[2,3-c]pyridine-6-sulfonamide]: the IC50 stood at 10 nM.

On to `CC(C)(C)OC(=O)N1CC(=O)c2c([nH]c(-c3ccncc3C(F)(F)F)c2Nc2ccccc2)C1` [Example 298, tert-Butyl 4-oxo-3-(phenylamino)-2-[3-(trifluoromethyl)pyridin-4-yl]-1,4,5,7-tetrahydro-6H-pyrrolo[2,3-c]pyridine-6-carboxylate], for which the IC50 came to 896 nM.

For `O=C1CNCc2[nH]c(-c3ccnc(NC(=O)C4CC4(F)F)c3)c(Nc3ccccc3)c21` (racemic) [Example 137, (1RS)—N-[4-(3-Anilino-4-oxo-4,5,6,7-tetrahydro-1H-pyrrolo[2,3-c]pyridin-2-yl)pyridin-2-yl]-2,2-difluorocyclopropanecarboxamide], the 50% inhibitory concentration (IC50) is 64 nM.

As to `CN1CCN(C(=O)N2CC(=O)c3c([nH]c(-c4ccncc4)c3Nc3ccccc3)C2)CC1` [Example 95, 6-[(4-Methylpiperazin-1-yl)carbonyl]-3-(phenylamino)-2-(pyridin-4-yl)-1,5,6,7-tetrahydro-4H-pyrrolo[2,3-c]pyridin-4-one], the IC50 was determined as 9 nM.

As for `CC(=O)Nc1cc(-c2[nH]c3c(c2Nc2ccc(C)cc2)C(=O)CN(C(=O)OC(C)(C)C)C3)ccn1` [Example 295, tert-Butyl 2-(2-acetamidopyridin-4-yl)-3-[(4-methylphenyl)amino]-4-oxo-1,4,5,7-tetrahydro-6H-pyrrolo[2,3-c]pyridine-6-carboxylate], the IC50 is 363 nM.

In the case of `CC(=O)Nc1cc(-c2[nH]c3c(c2Nc2ccccc2)C(=O)CN(C(=O)c2cnc[nH]2)C3)ccn1` [Example 113, N-{4-[6-(1H-Imidazol-5-ylcarbonyl)-4-oxo-3-(phenylamino)-4,5,6,7-tetrahydro-1H-pyrrolo[2,3-c]pyridin-2-yl]pyridin-2-yl}acetamide], the IC50 is 34 nM.

For the molecule `CS(=O)(=O)N1CC(=O)c2c([nH]c(-c3ccnc(NC(=O)[C@@H]4C[C@@H]4F)c3)c2Nc2ccccc2)C1` [Example 203], the IC50 worked out at 2 nM.

Consider `CC(=O)Nc1cc(-c2[nH]c3c(c2Nc2ccccc2)C(=O)CN(C(=O)C(C)C)C3)ccn1` [Example 170, N-[4-(3-Anilino-6-isobutyryl-4-oxo-4,5,6,7-tetrahydro-1H-pyrrolo[2,3-c]pyridin-2-yl)pyridin-2-yl]acetamide], for which the IC50 was 5 nM.

In the case of `CC(=O)Nc1cc(-c2[nH]c3c(c2Nc2ccccc2)C(=O)CN(C(=O)c2cnco2)C3)ccn1` [Example 176, N-{4-[3-Anilino-6-(1,3-oxazol-5-ylcarbonyl)-4-oxo-4,5,6,7-tetrahydro-1H-pyrrolo[2,3-c]pyridin-2-yl]pyridin-2-yl}acetamide], the IC50 was determined as 16 nM.

For the molecule `CC(=O)Nc1cc(-c2[nH]c3c(c2Nc2ccccc2)C(=O)CN(C(=O)CC(C)(C)O)C3)ccn1` [Example 177, N-{4-[3-Anilino-6-(3-hydroxy-3-methylbutanoyl)-4-oxo-4,5,6,7-tetrahydro-1H-pyrrolo[2,3-c]pyridin-2-yl]pyridin-2-yl}acetamide], the IC50 was 23 nM.

Consider `Cc1cnccc1-c1[nH]c2c(c1Nc1ccccc1)C(=O)CSC2` [Example 37, 2-(3-Methylpyridin-4-yl)-3-(phenylamino)-1,7-dihydrothiopyrano[3,4-b]pyrrol-4(5H)-one], for which the IC50 is 482 nM.

On to `CC(=O)Nc1cc(-c2[nH]c3c(c2Nc2ccccc2)C(=O)CN(S(=O)(=O)CCC(F)(F)F)C3)ccn1` [Example 182, N-(4-{3-Anilino-4-oxo-6-[(3,3,3-trifluoropropyl)sulfonyl]-4,5,6,7-tetrahydro-1H-pyrrolo[2,3-c]pyridin-2-yl}pyridin-2-yl)acetamide], for which the IC50 stood at 4 nM.

Regarding `CN1CCN(C(=O)N2CC(=O)c3c([nH]c(-c4ccncc4OCC(F)F)c3Nc3ccccc3)C2)CC1` [Example 240, 2-[3-(2,2-Difluoroethoxy)pyridin-4-yl]-6-[(4-methylpiperazin-1-yl)carbonyl]-3-(phenylamino)-1,5,6,7-tetrahydro-4H-pyrrolo[2,3-c]pyridin-4-one], the IC50 was found to be 66 nM.

With `CN(C)S(=O)(=O)N1CC(=O)c2c([nH]c(-c3ccnc(NC(=O)C4(F)CC4)c3)c2Nc2ccccc2)C1` [Example 273, N-4-[6-(Dimethylsulfamoyl)-4-oxo-3-(phenylamino)-4,5,6,7-tetrahydro-1H-pyrrolo[2,3-c]pyridin-2-yl]pyridin-2-yl-1-fluorocyclopropanecarboxamide], the IC50 came out at 11 nM.

For `CC(C)OC(=O)N1CC(=O)c2c([nH]c(-c3ccnc(NC(=O)C4CC4(F)F)c3)c2Nc2ccccc2)C1` (racemic) [Example 158, Isopropyl 3-anilino-2-[2-({[(1RS)-2,2-difluorocyclopropyl]carbonyl}amino)pyridin-4-yl]-4-oxo-1,4,5,7-tetrahydro-6H-pyrrolo[2,3-c]pyridine-6-carboxylate], the IC50 turned out to be 8 nM.

On to `CC(=O)Nc1cc(-c2[nH]c3c(c2Nc2ccccc2)C(=O)CN(C(=O)C(C)(C)C)C3)ccn1` [Example 181, N-{4-[3-Anilino-6-(2,2-dimethylpropanoyl)-4-oxo-4,5,6,7-tetrahydro-1H-pyrrolo[2,3-c]pyridin-2-yl]pyridin-2-yl}acetamide], for which the IC50 is 5 nM.

As for `COc1cc(C(=O)Nc2cc(-c3[nH]c4c(c3Nc3ccccc3)C(=O)CN(C(=O)N3C[C@@H](C)O[C@@H](C)C3)C4)ccn2)ccc1F` [Example 261, N-4-[6-[(2R,6S)-2,6-Dimethylmorpholin-4-yl]carbonyl-4-oxo-3-(phenylamino)-4,5,6,7-tetrahydro-1H-pyrrolo[2,3-c]pyridin-2-yl]pyridin-2-yl-4-fluoro-3-methoxybenzamide], the IC50 amounted to 351 nM.

As for `CC(C)(C)OC(=O)N1CC(=O)c2c([nH]c(-c3ccnc(NC(=O)C4CC4(F)F)c3)c2Nc2ccccc2)C1` (racemic) [Example 121, tert-Butyl 2-[2-({[(1RS)-2,2-difluorocyclopropyl]carbonyl}amino)pyridin-4-yl]-4-oxo-3-(phenylamino)-1,4,5,7-tetrahydro-6H-pyrrolo[2,3-c]pyridine-6-carboxylate], the IC50 came out at 10 nM.

Consider `O=C(Nc1cc(-c2[nH]c3c(c2Nc2ccccc2)C(=O)CNC3)ccn1)c1cncs1` [Example 135], for which the IC50 turned out to be 51 nM.

On to `CC(=O)Nc1cc(-c2[nH]c3c(c2Nc2ccccc2)C(=O)CN(C(=O)N(C)C(C)C)C3)ccn1` [Example 186, 2-(2-Acetamidopyridin-4-yl)-3-anilino-N-isopropyl-N-methyl-4-oxo-1,4,5,7-tetrahydro-6H-pyrrolo[2,3-c]pyridine-6-carboxamide], for which the IC50 was 3 nM.

For the origin of these results see patent US20200216439A1, “HETERO-1,5,6,7-TETRAHYDRO-4H-INDOL-4-ONES” (BAYER PHARMA AKTIENGESELLSCHAFT, priority 2015, published 2020).
